The values below come from patent US9951335B2, “Compositions and methods for treating otitis media and other conditions with inhibitors of CYLD” (Georgia State University Research Foundation, Inc., priority 2012, dated 2018).

Assay [1] relates to Smad3. The assay is described as follows: Smad3 protein expression in cells incubated with Akt or PI3K inhibitor (immunoblotting). The assay is classed as cell-based, mouse. The following applies: 20 μM; MEF cells from Cyld+/+ and Cyld−/− mice (FIG. 5d), cells (FIG. 5e). How it is done: FIG. 5 illustrates that CYLD decreases Smad3 stability by inhibiting Akt. (a) MEF cells from Cyld+/+ and Cyld−/− mice were transfected with siCon or siAkt1/2 and analysed by immunoblotting with the indicated antibodies. (b) SBE-promoter activity was determined in siCYLD-transfected A549 cells with or without siAkt co-transfection and stimulated with TGF-β. (c) SBE-promoter activity was determined in MEFs from Cyld+/+ and Cyld−/− mice pretreated with Akt inhibitor and stimulated with TGF-β. (d) MEF cells from Cyld+/+ and Cyld−/− mice were incubated with Akt inhibitor (20 μM), and cell lysates were analysed by immunoblotting with the indicated antibodies. (e) Cells were incubated with Akt inhibitor (20 μM) or LY294002 (20 μM), and cell lysates were analysed by immunoblotting with the indicated antibodies. (f) Lysates from cells transfected with HA-CYLD and Flag-Akt were immunoprecipitated with anti-CYLD antibody (upper panel) or anti-Akt antibody (lower panel), and interacting proteins were analysed by immunoblotting. […]
Western blot, immunoprecipitation and ubiquitination experiments were performed as follows. […] Immunoprecipitates were then suspended in a sample buffer, separated on 8% SDS-PAGE, transferred to polyvinylidine difluoride membrane, and detected by immunoblot analysis, as described above. […]
Background: In western blotting, separated proteins are transferred to a membrane and probed.

Assay [2] has as its system TGF-β-signalling. Nature of the assay: TGF-β-induced SBE-promoter activity in mouse MEF cells. The assay is classed as cell-based. The following applies: Cyld−/− MEFs pretreated with inhibitor. How it is done:
(§1) The expression plasmids Flag-WT-CYLD, HA-WT-CYLD, Flag-H/N-CYLD, HA-C/S-CYLD, Flag-WT-Smad3, C/A-TβRI, and the reporter plasmids SBE-Luc, PAI-1-Luc, and NF-κB-Luc were previously described. Flag-WT-Akt1, pRK5-HA-Ub WT, pRK5-HA-Ub K63, and pRK5-HA-Ub K48 were from Addgene, and K to R mutants of Akt were generated with WT-Akt1 using QuickChange XL Site-Directed Mutagenesis kit (Stratagene). All transient transfections were carried out using TransIT-LT1 reagent (Minis) or Lipofectamine (Invitrogen) according to manufacturers' instructions.

The test system of assay [3] is PAI-1. The assay is described as follows: TGF-β-induced PAI-1 expression (promoter activity, mRNA) in human cells. The assay is classed as cell-based. The conditions noted are these: WT-CYLD-transfected cells pre-treated with MG-132; mRNA. As for the experimental part: Total RNA was isolated using TRIzol reagent following the manufacturer's instructions. Synthesis of complementary DNA from total RNA was performed with MultiScribe reverse transcriptase. Real-time quantitative PCR was performed using an ABI 7500 Sequence Detection System (Applied Biosystems). Relative quantities of mRNAs were calculated using the comparative threshold cycle method and normalized using human and mouse glyceraldehyde-3-phosphate dehydrogenase as an endogenous control. The primer sequences for mouse COL1A2, COL3A1, CTGF and PAI-1, and human PAI-1, CHIP, and Smad3 are as follows. Mouse CTGF: 5′-[…]-3′ (SEQ ID NO:1) and 5′-[…]-3′ (SEQ ID NO:2); mouse COL1A2: 5′-[…]-3′ (SEQ ID NO:3) and 5′-[…]-3′ (SEQ ID NO:4); mouse COL3A1: 5′-[…]-3′ (SEQ ID NO:5) and 5′-[…]-3′ (SEQ ID NO:6); mouse PAI-1: 5′-[…]-3′ (SEQ ID NO:7) and 5′-[…]-3′ (SEQ ID NO:8); human PAI-1: 5′-[…]-3′ (SEQ ID NO:9) and 5′-[…]-3′ (SEQ ID NO:10); human CHIP: 5′-[…]-3′ (SEQ ID NO:11) and 5′-[…]-3′ (SEQ ID NO:12).
as §1

The subject of assay [4] is Smad3. Nature of the assay: Smad3 protein level in transfected cells by immunoblotting. The assay is classed as cell-based, human. As for the experimental part: Western blot, immunoprecipitation and ubiquitination experiments were performed as follows. Western blots were performed using whole-cell extracts, separated on 8 or 10% SDS-PAGE gels, and transferred to polyvinylidine di& uoride membranes. The membrane was blocked with a solution of PBS containing 0.1% Tween 20 (PBS-T) and 5% BSA. The membrane was then incubated in a 1:2,000 dilution of a primary antibody in 5% BSA-PBS-T. After three washes in PBS-T, the membrane was incubated with 1:5,000 dilution of the corresponding secondary antibody in 3% non-fact skim milk-PBS-T. Respective proteins were visualized by using enhanced chemiluminescence detection reagents, according to the manufacturer's instructions. To conduct immunoprecipitation analysis, cell lysates were incubated with 1 μg of primary antibodies overnight, at 4° C., followed by 2-h incubation with protein A/G-agarose beads (Invitrogen). Immunoprecipitates were then suspended in a sample buffer, separated on 8% SDS-PAGE, transferred to polyvinylidine difluoride membrane, and detected by immunoblot analysis, as described above. […]

In assay [5] the test system is CYLD. Nature of the assay: NTHi-induced up-regulation of CYLD in epithelial cells (Q-PCR, Western blot). The assay is classed as cell-based, human. The following applies: for NTHi-induced up-regulation of CYLD at both mRNA and protein levels: HMEEC, A549 and primary NHBE cells, conventional and air-liquid-interface culture. An excerpt: (§2) Phosphodiesterases (PDEs) have been recognized as therapeutic targets. […] For this reason, we initially sought to determine if PDEs act as key negative regulator for CYLD.

In assay [6] the test system is lung fibrosis. The assay is described as follows: S. pneumoniae-induced lung fibrosis in Cyld−/− mice (H&E, Masson's trichrome). The assay is classed as in vivo, mouse. As for the experimental part:
Cyld−/− mice were generated by homologous recombination as follows. The targeting construct was designed to disrupt the exons 2 and 3 with an IRES-LacZ/MC1-Neo cassette. The targeting plasmid was linearized and transfected into embryonic stem cells of a 129/S. Homologously recombined embryonic stem cells were injected into blastocysts that were subsequently transferred to foster mothers, to generate chimeric progeny. Generated chimeric progeny were backcrossed to C57BL/6J, and germline transmission was confirmed by PCR with tail DNA. Homozygous knockout of Cyld gene was confirmed by mRNA detection by RT-PCR and CYLD protein detection by western blot analysis in MEF cells and lung tissues. For S. pneumoniae-induced severe infections in WT and Cyld−/− mice, anaesthetized mice were intratracheally (i.t.) inoculated with live S. pneumoniae (5×10^7 CFU per mouse). Surviving mice from severe pneumonia were then sacrificed 2 weeks post S. pneumoniae infection for histopathological analysis. For TGF-β inoculation, anesthetized WT and Cyld−/− mice were i.t. inoculated with TGF-β (25-100 ng per mouse) for 6 hours, and lung tissues were then subjected to total mRNA and protein extraction. […]

In assay [7] the test system is PDE4B / PDE4D. The following applies: known property, cited from earlier work.
Assay [8] deals with NTHi-induced inflammation. Nature of the assay: NTHi-induced inflammation in epithelial cells (NF-κB activation, IL-1β, IL-8, TNF-α; Q-PCR, ELISA). The following applies: for NTHi-induced inflammatory response / concentration at which NTHi-induced inflammatory response was suppressed: HMEEC cell; for NTHi-induced inflammatory response: roflumilast at 1 μM. The assay is classed as cell-based, human. An excerpt: We next determined if PDE4 inhibition suppresses NTHi-induced inflammation. […] Despite showing that inhibiting PDE4 enhanced up-regulation of CYLD and suppressed NTHi-induced inflammation, it was still unclear whether inhibiting PDE4 suppressed inflammation by up-regulating CYLD or by inhibiting a positive regulator of inflammation (e.g., IKKβ).

Assay [9] concerns NTHi-induced inflammation. The assay is described as follows: NTHi-induced middle ear inflammation in mouse OM model (cytokines, otoscopy, histopathology). It is filed as in vivo.
Assay [10] relates to NF-κB. The assay is described as follows: NF-κB activation induced by overexpressing constitutively active IKKβ or wild-type p65. The assay is classed as cell-based. The source says:
We next determined if PDE4 inhibitors may also suppress inflammation via directly inhibiting IKKβ, the key positive regulator of NF-κB-dependent inflammation.

The subject of assay [11] is CYLD. The assay is described as follows: CYLD up-regulation in the middle ear of mouse OM model (Q-PCR, IF staining). The assay is classed as in vivo.
Excerpt: as §2
Ototopical administration works effectively when the eardrum is perforated either pathologically or surgically by tympanostomy tube insertion. Thus, we first determined if ototopical administration of rolipram up-regulates CYLD and suppresses inflammation in the middle ear of mice post NTHi inoculation.

The mark [12] stands for this setting: ototopical pre- and post-inoculation administration, mouse OM model.

Where two headings read alike, the source gives them in different places. Residues, ends and D or L forms follow the SMILES beside them. *: point of attachment. Cbz = O=C(OCc1ccccc1)*

On to `CCCCCCCCCCCCCCCCCCOCC(COC(=O)OC1C(O)C(O)C(O)C(CO)C1O)OC` [Akt inhibitor, 1L6-Hydroxymethyl-chiro-inositol-2(R)-2-O-methyl-3-O-octadecyl-sn-glycerocarbonate], for which, in assay [1], the Smad3 protein expression entry is on record as “markedly reduced”. Also, the “enhanced TGF-β-induced SBE promoter activity” value in [2] was “inhibited”.
Regarding `CC(C)C[C@@H](C=O)NC(=O)[C@H](CC(C)C)NC(=O)[C@H](CC(C)C)NC(=O)OCc1ccccc1` [MG132] (Cbz-Leu-Leu-Leu-aldehyde), in assay [3], the “WT-CYLD-induced decrease in TGF-β-induced PAI-1 expression” value is “reversed”. Further, the “WT-CYLD-induced decrease in Smad3 protein level” value in [4] (WT-CYLD-transfected cells, 20 μM) is on record as “reversed”.
As for `CCCCOc1cc(CC2CNC(=O)N2)ccc1OC` (centres unmarked) [Ro20-1724], in assay [5], the “NTHi-induced up-regulation of CYLD at both mRNA and protein levels” value was “markedly enhanced”.
Take `C[S+]([O-])c1ccc(-c2nc(-c3ccc(F)cc3)c(-c3ccncc3)[nH]2)cc1` (centres unmarked) [SB203580]: the “lung fibrosis in Cyld−/− mice” value in assay [6] (S. pneumoniae infection, 20 mg kg−1 intraperitoneal 1-2 hours before inoculation) is “did not affect”.
As for `Cn1cc(C2=C(c3ccc(Cl)cc3Cl)C(=O)NC2=O)c2ccccc21` [SB216763], in assay [4] (A549 cells, 5 μM for 12 h), the “WT-CYLD-induced Smad3 decrease” value was “reversed”.
For `NC(=O)c1ccc(-c2nc(-c3ccccn3)c(-c3ccc4c(c3)OCO4)[nH]2)cc1` [SB431542], the “lung fibrosis in S. pneumoniae-inoculated Cyld−/− lungs” value in assay [6] (10 mg per kg body weight intraperitoneal, 2-weeks post infection) is “inhibited”.
In the case of `COc1ccc([C@]2(C#N)CC[C@@H](C(=O)O)CC2)cc1OC1CCCC1` [cilomilast], the “PDE4 subfamily selectivity (PDE4B versus PDE4D)” value in [7] is listed as “more PDE4D selective”. In [8], the NTHi-induced inflammatory response entry was “no significant inhibitory effect”.
Turning to `O=C(Nc1c(Cl)cncc1Cl)c1ccc(OC(F)F)c(OCC2CC2)c1` [roflumilast], the “PDE4 subfamily selectivity (PDE4B versus PDE4D)” value is reported as “more selective for PDE4B than for PDE4D” in [7] and “more specific inhibitor for PDE4B” in assay [7] (listed as Roflumilast). Also, the “concentration at which NTHi-induced inflammatory response was suppressed” value in assay [8] was 1 µM. Also, the NTHi-induced inflammatory response result in assay [8] is “markedly suppressed”. In addition, the CYLD expression result in assay [5] is “enhanced”.
With `COc1ccc(C2CNC(=O)C2)cc1OC1CCCC1` (centres unmarked) [rolipram], the “NTHi-induced otoscopic pathological changes of OM (congestion and swelling of tympanic membranes, mucous effusion)” value in assay [9] (i.p. administration, NTHi-inoculated mice, otoscopic examination) is “inhibited”. Besides, the “middle ear mucosal thickening and PMN infiltration in the middle ear mucosa” value in assay [9] (i.p. administration, histopathologic analysis) is recorded as “inhibited”. For the same compound, the “NTHi-induced up-regulation of IL-1β and MIP-2, middle ear mucosal thickening and PMN infiltration” value in [9] (i.p. administration, mouse OM model, CYLD-deficiency context) is recorded as “no longer inhibited”. In addition, the “NTHi-induced up-regulation of the proinflammatory mediators in the middle ear of mouse” value in assay [9] (mouse) is reported as “inhibited”. The middle ear inflammation result in assay [9] (setting [12]) is “suppressed”. Moreover, the “activation of NF-κB induced by overexpressing constitutively active IKKβ or wild-type p65” value in assay [10] is “did not significantly inhibit”. In addition, in [8] (CYLD-deficient cells), the “NTHi-induced mRNA expression of these cytokines in CYLD-deficient cells” value is “failed to inhibit”. Also, the “concentration at which NTHi-induced inflammatory response was suppressed” value in assay [8] came to 10 µM. Further, in assay [8] (HMEEC, A549, primary NHBE cells), the “NTHi-induced NF-κB activation” value is on record as “potently inhibited”. Moreover, the “NTHi-induced up-regulation of IL-1β, IL-8 and TNF-α in CYLD-depleted cells” value in [8] (HMEEC, A549, primary NHBE cells, CYLD depleted with siRNA CYLD) is on record as “no longer inhibited”. In assay [8] (HMEEC, A549, primary NHBE cells, Q-PCR and ELISA), the “NTHi-induced up-regulation of pro-inflammatory mediators IL-1β, IL-8 and TNF-α at the mRNA and protein levels” value was “potently inhibited”. Besides, in assay [5], the “NTHi-induced up-regulation of CYLD at both mRNA and protein levels” value is reported as “markedly enhanced”. In [11] (mouse model of OM, Q-PCR and IF staining), the “up-regulation of CYLD at the mRNA level and protein level in the middle ear mucosa” value is given as “enhanced”. For the same compound, in assay [11] (setting [12]), the “CYLD expression in the middle ear” value was “up-regulated”.
